Experiments:
[1] = tested on: IRF4 and c-Myc; assay: Western blot of IRF4 and c-Myc in MM cells; assay type: cell-based; conditions: MM1.S, DF15 and U266 cells; 1 μM POM, 3 days
Description: FIG. 1A-1F. Down regulation of UHRF1 transcription by IMiDs correlates with drug sensitivity of multiple myeloma. (1A) Volcano plot of protein expression changes determined by mass spectrometry in H929 cells at 24 hr of treatment with CC-220 (0.1 μM) or DMSO control. X axis, Log2fold change (FC); Y axis, significance,-log 10 [p-value]. […] (1B) Volcano plot of gene expression changes determined by Affymetrix microarray in H929 cells treated with POM (1 μM) or DMSO for 24 hr. X axis, Log2fold change (FC); Y axis, significance,-log 10 [p-value], n=2 technical replicates). […] (1C) Western blot analysis protein expression of UHRF1, Ikaros, Aiolos and ZFP91 in H929 cells treated with 1 μM POM for indicated time. (1D) qRT-PCR analysis of UHRF1 gene expression levels in cells as in (1C). Error bars represent the SEM from duplicate measurements. (1E) Western blot analysis protein expression of UHRF1 and indicated proteins in MM cells treated with DMSO (−) or 1 μM POM (+) for 3 days. GAPDH serves as a loading control. […]
Cells were lysed with cell lysis buffer (50 mM TrisHCl pH7.4, 250 mM NaCl, 0.5% Triton X100, 10% glycerol) supplemented with protease inhibitor cocktail. […] The protein concentration was measured by a Bradford Protein Assay (Bio-Rad). […] Proteins of interested were detected incubation with primary antibodies listed below at 4° C. overnight. […]

[2] = tested on: multiple myeloma (MM) cells; assay: (3H)-thymidine incorporation assay of MM cell lines; assay type: cell-based; conditions: POM 3 days
Description: FIG. 1A-1F. Down regulation of UHRF1 transcription by IMiDs correlates with drug sensitivity of multiple myeloma. (1A) Volcano plot of protein expression changes determined by mass spectrometry in H929 cells at 24 hr of treatment with CC-220 (0.1 μM) or DMSO control. X axis, Log2fold change (FC); Y axis, significance,-log 10 [p-value]. […] (1B) Volcano plot of gene expression changes determined by Affymetrix microarray in H929 cells treated with POM (1 μM) or DMSO for 24 hr. X axis, Log2fold change (FC); Y axis, significance,-log 10 [p-value], n=2 technical replicates). […] (1C) Western blot analysis protein expression of UHRF1, Ikaros, Aiolos and ZFP91 in H929 cells treated with 1 μM POM for indicated time. (1D) qRT-PCR analysis of UHRF1 gene expression levels in cells as in (1C). Error bars represent the SEM from duplicate measurements. (1E) Western blot analysis protein expression of UHRF1 and indicated proteins in MM cells treated with DMSO (−) or 1 μM POM (+) for 3 days. GAPDH serves as a loading control. (1F) Thymidine incorporation of various MM cell lines treated with indicated dose of POM for 3 days. Error bars represent the SEM from technical replicates.
(3H)-thymidine incorporation assay was performed as previously described (PMID: 23252516) with minor modifications. Briefly, 1×10^4 or 2×10^5 multiple myeloma (MM) cells were cultured in 96-well culture plates in complete media with the indicated concentration of pomalidomide (POM) or DMSO control for 3 days. 37 kBg (3H)-thymidine was added to each will at the final 6 hour of incubation.

Nc1cccc2c1C(=O)N(C1CCC(=O)NC1=O)C2=O (centres unmarked) [POM, pomalidomide]
IRF4 and c-Myc expression [1]: downregulated | drug sensitivity of cell lines ([2]; H929, MM1.S, DF15 and U266): sensitive | drug sensitivity of cell lines ([2]; H929 PR and DF15 PR (diminished cereblon expression)): acquired resistance | drug sensitivity of cell line ([2]; MC/CAR): less sensitive | drug sensitivity of cell line ([2]; RPMI 8226): intrinsically resistant

— patent US20260234630A1, “Methods for Treating Multiple Myeloma” (Celgene Corporation, priority 2022, published 2026)
